Source: patent publication US9113629B2, “4-amino-6-(4-substituted-phenyl)-picolinates and 6-amino-2-(4-substituted-phenyl)-pyrimidine-4-carboxylates and their use as herbicides” (DOW AGROSCIENCES LLC, priority 2013, dated 2015)
Read-outs that look alike come from different tables or passages of the source.

Tests used:
[1] = system: Key Broadleaf Weed and Crop Species; experiment: Post-emergent Test II herbicidal activity (Table 5); assay type: in vivo; conditions: post-emergence, 336 h, 14 days after application; for pest or weed control at 70 g/ha: application rate 70 g ai/ha; for pest or weed control at 140 g/ha: application rate 140 g ai/ha
Outline: (§1)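 Injury was rated visually 14 d after treatment on a 0–100% scale against untreated controls. Test compounds, formulated with crop oil concentrate and surfactant and serially diluted down to 1/16× of the top rate, were applied by track sprayer at 187 L/ha onto first- to second-true-leaf seedlings.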

[2] = system: Key Grass and Sedge Weeds as well as Grass Crops; experiment: Post-emergent Test II herbicidal activity (Table 6); assay type: in vivo; conditions: post-emergence, 336 h
Outline: as §1

[3] = ABUTH: velvetleaf (Abutilon theophrasti), read-out: Visual Growth Reduction (%) 14 Days After Application, ABUTH
[4] = AMARE: redroot pigweed (Amaranthus retroflexus), read-out: Visual Growth Reduction (%) 14 Days After Application, AMARE
[5] = BRSNN: oilseed-rape, canola (Brassica napus), read-out: Visual Growth Reduction (%) 14 Days After Application, BRSNN
[6] = CHEAL: lambsquarters (Chenopodium album), read-out: Visual Growth Reduction (%) 14 Days After Application, CHEAL
[7] = EPHHL: wild poinsettia (Euphorbia heterophylla), read-out: Visual Growth Reduction (%) 14 Days After Application, EPHHL
[8] = HELAN: sunflower (Helianthus annuus), read-out: Visual Growth Reduction (%) 14 Days After Application, HELAN
[9] = VIOTR: wild pansy (Viola tricolor), read-out: Visual Growth Reduction (%) 14 Days After Application, VIOTR

With `Nc1c(F)c(-c2ccc(OC(F)F)c(F)c2F)nc(C(=O)O)c1Cl` [Compound 19] the melting point was 113 to 115 °C, the pest or weed control at 70 g/ha [1, 3] was 0 to 29% and the pest or weed control at 140 g/ha [1, 3] was 0 to 29%. For the same molecule, the pest or weed control at 70 g/ha [1, 4] was 0 to 29%, the pest or weed control at 140 g/ha [1, 4] was 0 to 29% and the pest or weed control at 70 g/ha [1, 5] was 0 to 29%. For the same molecule, the pest or weed control at 140 g/ha [1, 5] was 60 to 74%, the pest or weed control at 70 g/ha [1, 6] was 0 to 29% and the pest or weed control at 140 g/ha [1, 6] was 0 to 29%. It also gave a pest or weed control at 70 g/ha [1, 7] of 0 to 29%, a pest or weed control at 140 g/ha [1, 7] of 30 to 44% and a pest or weed control at 70 g/ha [1, 8] of 75 to 84%. For the same molecule, the pest or weed control at 140 g/ha [1, 8] was 75 to 84%, the pest or weed control at 70 g/ha [1, 9] was 0 to 29% and the pest or weed control at 140 g/ha [1, 9] was 0 to 29%. For the same molecule, the pest or weed control at 70 g/ha ([2]; Triticum aestivum, TRZSS (wheat), application rate 70 g ai/ha, read-out: Visual Growth Reduction (%) 14 Days After Application, TRZSS) was 0 to 29%, the pest or weed control at 140 g/ha ([2]; Triticum aestivum, TRZSS (wheat), application rate 140 g ai/ha, read-out: Visual Growth Reduction (%) 14 Days After Application, TRZSS) was 0 to 29% and the pest or weed control at 70 g/ha ([2]; CYPES: yellow nutsedge (Cyperus esculentus), application rate 70 g ai/ha, read-out: Visual Growth Reduction (%) 14 Days After Application, CYPES) was 0 to 29%. For the same molecule, the pest or weed control at 140 g/ha ([2]; CYPES: yellow nutsedge (Cyperus esculentus), application rate 140 g ai/ha, read-out: Visual Growth Reduction (%) 14 Days After Application, CYPES) was 0 to 29%, the pest or weed control at 70 g/ha ([2]; DIGSA: crabgrass (Digitaria sanguinalis), application rate 70 g ai/ha, read-out: Visual Growth Reduction (%) 14 Days After Application, DIGSA) was 0 to 29% and the pest or weed control at 140 g/ha ([2]; DIGSA: crabgrass (Digitaria sanguinalis), application rate 140 g ai/ha, read-out: Visual Growth Reduction (%) 14 Days After Application, DIGSA) was 0 to 29%. The pest or weed control at 70 g/ha ([2]; ECHCG: barnyardgrass (Echinochloa crus-galli), application rate 70 g ai/ha, read-out: Visual Growth Reduction (%) 14 Days After Application, ECHCG) was 0 to 29%, the pest or weed control at 140 g/ha ([2]; ECHCG: barnyardgrass (Echinochloa crus-galli), application rate 140 g ai/ha, read-out: Visual Growth Reduction (%) 14 Days After Application, ECHCG) was 0 to 29% and the pest or weed control at 70 g/ha ([2]; ORYSA: rice (Oryza sativa), application rate 70 g ai/ha, read-out: Visual Growth Reduction (%) 14 Days After Application, ORYSA) was 0 to 29%. It also gave a pest or weed control at 140 g/ha ([2]; ORYSA: rice (Oryza sativa), application rate 140 g ai/ha, read-out: Visual Growth Reduction (%) 14 Days After Application, ORYSA) of 0 to 29%, a pest or weed control at 70 g/ha ([2]; SETFA: giant foxtail (Setaria faberi), application rate 70 g ai/ha, read-out: Visual Growth Reduction (%) 14 Days After Application, SETFA) of 0 to 29% and a pest or weed control at 140 g/ha ([2]; SETFA: giant foxtail (Setaria faberi), application rate 140 g ai/ha, read-out: Visual Growth Reduction (%) 14 Days After Application, SETFA) of 0 to 29%. For the same molecule, the pest or weed control at 70 g/ha ([2]; SORVU: grain sorghum (Sorghum vulgare), application rate 70 g ai/ha, read-out: Visual Growth Reduction (%) 14 Days After Application, SORVU) was 0 to 29%, the pest or weed control at 140 g/ha ([2]; SORVU: grain sorghum (Sorghum vulgare), application rate 140 g ai/ha, read-out: Visual Growth Reduction (%) 14 Days After Application, SORVU) was 0 to 29% and the pest or weed control at 70 g/ha ([2]; ZEAMX: maize, corn (Zea mays), application rate 70 g ai/ha, read-out: Visual Growth Reduction (%) 14 Days After Application, ZEAMX) was 0 to 29%. The pest or weed control at 140 g/ha ([2]; ZEAMX: maize, corn (Zea mays), application rate 140 g ai/ha, read-out: Visual Growth Reduction (%) 14 Days After Application, ZEAMX) was 0 to 29%.

In the case of `Nc1c(F)c(-c2ccc(Br)c(F)c2)nc(C(=O)O)c1Cl` [Compound 21], the melting point was 117 to 120 °C, the pest or weed control at 70 g/ha [1, 3] was 95 to 100% and the pest or weed control at 140 g/ha [1, 3] was 95 to 100%. For the same molecule, the pest or weed control at 70 g/ha [1, 4] was 95 to 100%, the pest or weed control at 140 g/ha [1, 4] was 95 to 100% and the pest or weed control at 70 g/ha [1, 5] was 95 to 100%. The pest or weed control at 140 g/ha [1, 5] was 95 to 100%, the pest or weed control at 70 g/ha [1, 6] was 95 to 100% and the pest or weed control at 140 g/ha [1, 6] was 95 to 100%. It also gave a pest or weed control at 70 g/ha [1, 7] of 95 to 100%, a pest or weed control at 140 g/ha [1, 7] of 95 to 100% and a pest or weed control at 70 g/ha [1, 8] of 95 to 100%. The pest or weed control at 140 g/ha [1, 8] was 95 to 100%, the pest or weed control at 70 g/ha [1, 9] was 95 to 100% and the pest or weed control at 140 g/ha [1, 9] was 95 to 100%. For the same molecule, the pest or weed control at 70 g/ha ([2]; CYPES: yellow nutsedge (Cyperus esculentus), 70 g ai/ha, read-out: Visual Growth Reduction (%) 14 Days After Application, CYPES) was 95 to 100%, the pest or weed control at 140 g/ha ([2]; CYPES: yellow nutsedge (Cyperus esculentus), 140 g ai/ha, read-out: Visual Growth Reduction (%) 14 Days After Application, CYPES) was 95 to 100% and the pest or weed control at 70 g/ha ([2]; DIGSA: crabgrass (Digitaria sanguinalis), 70 g ai/ha, read-out: Visual Growth Reduction (%) 14 Days After Application, DIGSA) was 75 to 84%. The pest or weed control at 140 g/ha ([2]; DIGSA: crabgrass (Digitaria sanguinalis), 140 g ai/ha, read-out: Visual Growth Reduction (%) 14 Days After Application, DIGSA) was 75 to 84%, the pest or weed control at 70 g/ha ([2]; ECHCG: barnyardgrass (Echinochloa crus-galli), 70 g ai/ha, read-out: Visual Growth Reduction (%) 14 Days After Application, ECHCG) was 95 to 100% and the pest or weed control at 140 g/ha ([2]; ECHCG: barnyardgrass (Echinochloa crus-galli), 140 g ai/ha, read-out: Visual Growth Reduction (%) 14 Days After Application, ECHCG) was 95 to 100%. It also gave a pest or weed control at 70 g/ha ([2]; ORYSA: rice (Oryza sativa), crop, 70 g ai/ha, read-out: Visual Growth Reduction (%) 14 Days After Application, ORYSA) of 0 to 29%, a pest or weed control at 140 g/ha ([2]; ORYSA: rice (Oryza sativa), crop, 140 g ai/ha, read-out: Visual Growth Reduction (%) 14 Days After Application, ORYSA) of 0 to 29% and a pest or weed control at 70 g/ha ([2]; SETFA: giant foxtail (Setaria faberi), 70 g ai/ha, read-out: Visual Growth Reduction (%) 14 Days After Application, SETFA) of 95 to 100%. The pest or weed control at 140 g/ha ([2]; SETFA: giant foxtail (Setaria faberi), 140 g ai/ha, read-out: Visual Growth Reduction (%) 14 Days After Application, SETFA) was 95 to 100%, the pest or weed control at 70 g/ha ([2]; SORVU: grain sorghum (Sorghum vulgare), 70 g ai/ha, read-out: Visual Growth Reduction (%) 14 Days After Application, SORVU) was 95 to 100% and the pest or weed control at 140 g/ha ([2]; SORVU: grain sorghum (Sorghum vulgare), 140 g ai/ha, read-out: Visual Growth Reduction (%) 14 Days After Application, SORVU) was 95 to 100%. It also gave a pest or weed control at 70 g/ha ([2]; TRZSS (wheat, Triticum aestivum), crop, 70 g ai/ha, read-out: Visual Growth Reduction (%) 14 Days After Application, TRZSS) of 60 to 74%, a pest or weed control at 140 g/ha ([2]; TRZSS (wheat, Triticum aestivum), crop, 140 g ai/ha, read-out: Visual Growth Reduction (%) 14 Days After Application, TRZSS) of 60 to 74% and a pest or weed control at 70 g/ha ([2]; ZEAMX: maize, corn (Zea mays), crop, 70 g ai/ha, read-out: Visual Growth Reduction (%) 14 Days After Application, ZEAMX) of 95 to 100%. It also gave a pest or weed control at 140 g/ha ([2]; ZEAMX: maize, corn (Zea mays), crop, 140 g ai/ha, read-out: Visual Growth Reduction (%) 14 Days After Application, ZEAMX) of 95 to 100%.
